The term melting point denotes the temperature of the solid-liquid transition.

Data on seven molecules can be found in patent US7335645B2, “Effectors of dipeptidyl peptidase IV for topical use” (Probiodrug AG, priority 1999, dated 2008).

Counter-ions that a name gives are not always drawn.

For data set [1] the following is noted: literature statement (Reinhold et al., 1998); cited from earlier work.
The target of data set [2] is T1, plasma-DP IV (Rattus norvegicus, UniProt P14740).
T1 construct: from tissue; host or cells: plasma of Wistar rats after oral dosing
Kind of data set: Inhibition of plasma-DP IV after oral administration in healthy Wistar rats. In kind it is in vivo. Conditions: 5 μmol/300 g rat. On the procedure:
FIG. 1: Systemic action of orally administered DP IV-inhibitors in healthy Wistar rats.
The course, over time, of the percentage inhibition of plasma-DP IV activity following oral administration of 5 μmol of inhibitor per 300 g of rat (n=2) is shown.
The inhibition of plasma-DP IV (systemic action) was investigated following oral administration of side chain-modified DP IV-inhibitors ([…]) compared with unmodified inhibitors in healthy Wistar rats.

The target in data set [3] is T2, PepT1 (Oryctolagus cuniculus, UniProt P36836).
T2 construct: expressed in transfected cells
T2 sequence (P36836 1-707): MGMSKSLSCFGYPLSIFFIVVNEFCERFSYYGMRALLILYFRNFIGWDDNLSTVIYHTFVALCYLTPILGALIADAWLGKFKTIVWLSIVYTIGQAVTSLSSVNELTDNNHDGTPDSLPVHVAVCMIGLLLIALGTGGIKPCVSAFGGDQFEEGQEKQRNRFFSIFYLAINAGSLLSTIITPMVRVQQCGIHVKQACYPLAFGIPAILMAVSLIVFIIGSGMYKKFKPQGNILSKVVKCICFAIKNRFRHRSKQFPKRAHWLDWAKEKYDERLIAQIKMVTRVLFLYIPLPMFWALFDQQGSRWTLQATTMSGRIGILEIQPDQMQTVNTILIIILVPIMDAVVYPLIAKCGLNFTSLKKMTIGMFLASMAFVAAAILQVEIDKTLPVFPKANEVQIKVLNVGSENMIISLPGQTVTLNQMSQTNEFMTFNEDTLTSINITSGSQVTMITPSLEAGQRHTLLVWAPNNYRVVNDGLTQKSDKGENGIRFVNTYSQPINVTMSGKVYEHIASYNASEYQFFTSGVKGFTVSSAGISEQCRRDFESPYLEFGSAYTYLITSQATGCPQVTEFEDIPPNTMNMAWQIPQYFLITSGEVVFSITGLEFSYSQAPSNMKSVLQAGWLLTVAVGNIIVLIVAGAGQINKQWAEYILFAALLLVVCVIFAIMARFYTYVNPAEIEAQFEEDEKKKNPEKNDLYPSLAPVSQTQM
Kind of data set: Inhibition of 3H-D-Phe-Ala binding to PepT1-expressing P. pastoris cells. Conditions: read-out: EC50: effective concentration inhibiting the binding of 3H-D-Phe-Ala to PepT1-expressing P. pastoris cells by 50%. How it is done: (§1) Side chain-modified glutamylthiazolidines having a structure H-Glu(X)-Thia were synthesized, with polyethylene glycol or glycine oligomers of various chain lengths being used as X (see Method A for description of synthesis). The binding characteristics of those derivatives and their transportability by the peptide transporter PepT1 were investigated and the Ki values with respect to DP IV were determined (Table 1).

Data set [4] concerns PepT1. Kind of data set: Transport at PepT1-expressing X. leavis oocytes, two-electrode voltage clamp method. Type of data set: cell-based. Also on record: unit not given here. The settings on record: PepT1-expressing oocytes of X. leavis, n.d. = not detectable. On the procedure:
as §1

T1 sequence (P14740 38-767 limits assumed): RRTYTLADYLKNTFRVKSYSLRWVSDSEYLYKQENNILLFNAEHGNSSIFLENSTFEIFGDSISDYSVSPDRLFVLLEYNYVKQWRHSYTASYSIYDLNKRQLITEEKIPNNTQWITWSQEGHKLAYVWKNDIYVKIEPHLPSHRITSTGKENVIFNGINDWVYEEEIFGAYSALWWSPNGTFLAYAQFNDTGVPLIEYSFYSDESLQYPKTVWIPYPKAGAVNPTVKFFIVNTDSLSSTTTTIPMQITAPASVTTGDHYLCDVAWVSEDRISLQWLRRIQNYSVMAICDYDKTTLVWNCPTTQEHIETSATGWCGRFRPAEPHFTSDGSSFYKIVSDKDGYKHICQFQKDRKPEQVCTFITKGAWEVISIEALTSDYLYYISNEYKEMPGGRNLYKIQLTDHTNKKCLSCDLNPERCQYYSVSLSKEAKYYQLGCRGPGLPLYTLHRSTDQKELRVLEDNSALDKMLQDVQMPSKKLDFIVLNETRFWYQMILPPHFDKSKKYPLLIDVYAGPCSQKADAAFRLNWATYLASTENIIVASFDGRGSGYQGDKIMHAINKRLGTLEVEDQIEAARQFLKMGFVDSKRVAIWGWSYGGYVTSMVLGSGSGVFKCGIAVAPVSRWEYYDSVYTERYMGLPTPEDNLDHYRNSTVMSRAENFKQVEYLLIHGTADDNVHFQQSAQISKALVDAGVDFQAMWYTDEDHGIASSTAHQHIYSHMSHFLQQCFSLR

Turning to `N[C@@H](CCC(=O)NCC(=O)NCC(=O)NCC(=O)O)C(=O)N1CCSC1` (as salt: trifluoroacetate) [H-Glu(Gly3)-Thia], the melting point lay in the range of 91 to 94 °C. In the case of `N[C@@H](CCC(=O)NCC(=O)O)C(=O)N1CCSC1` [Glu(Gly)-Thia], the “Transport of the inhibitor” value in data set [1] is on record as “transported completely”. Consider `N[C@@H](CCC(=O)NCC(=O)NCC(=O)NCC(=O)NCC(=O)NCC(=O)O)C(=O)N1CCSC1` [H-Glu(Gly5)-Thia], for which, in data set [2], the “Systemic action (inhibition of plasma-DP IV) after oral administration” value was “no systemic action of the orally administered active ingredient is detectable”. With `NC(CCC(=O)O)C(=O)N1CCSC1` (stereo not drawn) [H-Glu-Thia], the EC50 in data set [3] was found to be 1.1 mM. Further, the “Imax: inward currents generated by the transport” value in data set [4] worked out at 35 ± 13.

Turning to `N[C@@H](CCCCNC(=O)OCc1ccc([N+](=O)[O-])cc1)C(=O)N1CCSC1` [Lys(Z-NO2)-Thia], the “Transport of the inhibitor” value in data set [1] is given as “transported completely”. Take H-Glu(PEG)-Thia: the EC50 in data set [3] is more than 10 mM. For H-Gly(NHOH)-Thia, the EC50 in data set [3] was 3.18 mM. Besides, in data set [4], the “Imax: inward currents generated by the transport” value is 42 ± 11.
